Measurements from the NIST ThermoML archive (doi:10.1021/je800110r).

Conditions: 303.16 K, Liquid, Vibrating tube method

CCCCCCCCCC [decane]
Conditions	mass density [kg/m3]
6904 kPa	727.9
6929 kPa	727.9
6949 kPa	727.9
6969 kPa	727.8
6992 kPa	727.8
7009 kPa	728
7035 kPa	727.9
7053 kPa	728
7084 kPa	727.9
7102 kPa	728
7120 kPa	727.9
7147 kPa	728
7171 kPa	728
7193 kPa	728
7215 kPa	728.1
7235 kPa	728.1
7258 kPa	728.1
7279 kPa	728.1
7295 kPa	728
7309 kPa	728.1
7326 kPa	728.1
7343 kPa	728.2
7357 kPa	728.1
7371 kPa	728.2
7388 kPa	728.3
7403 kPa	728.1
7422 kPa	728.3
7442 kPa	728.3
7459 kPa	728.3
7474 kPa	728.2
7491 kPa	728.3
7511 kPa	728.2
7532 kPa	728.4
7549 kPa	728.3
7567 kPa	728.3
7588 kPa	728.4
7605 kPa	728.4
7626 kPa	728.4
7644 kPa	728.3
7665 kPa	728.5
7683 kPa	728.3
7699 kPa	728.5
7720 kPa	728.4
7737 kPa	728.4
7756 kPa	728.5
7783 kPa	728.5
7802 kPa	728.5
7819 kPa	728.5
7847 kPa	728.5
7867 kPa	728.5
7880 kPa	728.5
7901 kPa	728.6
7922 kPa	728.6
7936 kPa	728.6
7957 kPa	728.7
7974 kPa	728.6
7993 kPa	728.7
8014 kPa	728.6
8028 kPa	728.7
8052 kPa	728.6
8069 kPa	728.7
8088 kPa	728.7
8105 kPa	728.8
8124 kPa	728.7
8139 kPa	728.7
8157 kPa	728.8
8172 kPa	728.9
8191 kPa	728.8
8214 kPa	728.9
8229 kPa	728.9
8249 kPa	728.8
8265 kPa	728.8
8287 kPa	728.9
8313 kPa	729
8328 kPa	728.9
8349 kPa	728.9
8365 kPa	729
8382 kPa	729.1
8400 kPa	729.1
8417 kPa	729
8439 kPa	728.9
8459 kPa	729
8476 kPa	729.1
8493 kPa	729.1
8509 kPa	729
8529 kPa	729
8546 kPa	729.1
8561 kPa	729.2
8582 kPa	729.1
8601 kPa	729.2
8617 kPa	729.2
8632 kPa	729.2
8647 kPa	729.2
8663 kPa	729.2
8682 kPa	729.2
8699 kPa	729.2
8715 kPa	729.2
8730 kPa	729.2
8742 kPa	729.3
8752 kPa	729.3
8768 kPa	729.2
8778 kPa	729.3
8792 kPa	729.2
8807 kPa	729.4
8821 kPa	729.3
8831 kPa	729.3
8847 kPa	729.2
8862 kPa	729.3
8874 kPa	729.2
8884 kPa	729.4
8895 kPa	729.3
8905 kPa	729.3
8920 kPa	729.4
8936 kPa	729.4
8948 kPa	729.4
8961 kPa	729.5
8973 kPa	729.4
8986 kPa	729.4
8998 kPa	729.5
9014 kPa	729.5
9025 kPa	729.4
9040 kPa	729.5
9051 kPa	729.5
9064 kPa	729.4
9075 kPa	729.5
9092 kPa	729.6
9107 kPa	729.6
9118 kPa	729.5
9133 kPa	729.6
9151 kPa	729.6
9166 kPa	729.5
9179 kPa	729.5
9192 kPa	729.6
9204 kPa	729.6
9219 kPa	729.7
9237 kPa	729.6
9251 kPa	729.6
